Source: ChEMBL document CHEMBL1201862, “PubChem BioAssay data set” (2004)
One block for each molecule: values may come before it. Active and inactive are the calls of the source.

Tests used:
[1] = molecular target: Beta-galactosidase (Escherichia coli, UniProt Q8VNN2); experiment: beta-galactosidase enzyme inhibitors and activators, dose response, artefact control for CCR6 antagonist project, biochemical, E. coli enzyme, set 3 (AID 504712); assay type: functional
[2] = molecular target: Apelin receptor (Homo sapiens, UniProt P35414); experiment: APJ beta-arrestin recruitment antagonism, SAR follow-up, selectivity assay for CCR6 antagonist project, cell-based, luminescent, enzyme-fragment complementation (AID 588359); assay type: functional
Sequence of Apelin receptor (P35414 whole entry, the tested form may be a part): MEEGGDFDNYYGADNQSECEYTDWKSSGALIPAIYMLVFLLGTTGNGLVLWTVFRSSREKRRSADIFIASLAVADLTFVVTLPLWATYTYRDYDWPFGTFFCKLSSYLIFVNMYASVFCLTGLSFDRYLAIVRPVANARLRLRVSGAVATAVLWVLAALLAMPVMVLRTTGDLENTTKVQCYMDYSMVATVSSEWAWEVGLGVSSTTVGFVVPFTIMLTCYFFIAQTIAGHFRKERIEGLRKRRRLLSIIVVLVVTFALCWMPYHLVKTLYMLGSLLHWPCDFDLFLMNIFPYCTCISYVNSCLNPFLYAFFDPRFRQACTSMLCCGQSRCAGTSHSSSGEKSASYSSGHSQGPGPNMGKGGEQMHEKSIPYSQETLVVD

[3] = molecular target: T1, Heat shock factor protein 1 (Mus musculus, UniProt P38532); experiment: inhibition of MG132-induced HSE-luciferase signal, confirmation, cell-based, NIH3T3, luminescence, dose retest (AID 2382); assay type: functional;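 note: NIH3T3 fibroblasts with HSF1-driven luciferase reporter stressed by proteasome inhibitor MG132; luminescence from HSF1-driven luciferase expression after 8 hours of MG132 stress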
T1 sequence (P38532 whole entry): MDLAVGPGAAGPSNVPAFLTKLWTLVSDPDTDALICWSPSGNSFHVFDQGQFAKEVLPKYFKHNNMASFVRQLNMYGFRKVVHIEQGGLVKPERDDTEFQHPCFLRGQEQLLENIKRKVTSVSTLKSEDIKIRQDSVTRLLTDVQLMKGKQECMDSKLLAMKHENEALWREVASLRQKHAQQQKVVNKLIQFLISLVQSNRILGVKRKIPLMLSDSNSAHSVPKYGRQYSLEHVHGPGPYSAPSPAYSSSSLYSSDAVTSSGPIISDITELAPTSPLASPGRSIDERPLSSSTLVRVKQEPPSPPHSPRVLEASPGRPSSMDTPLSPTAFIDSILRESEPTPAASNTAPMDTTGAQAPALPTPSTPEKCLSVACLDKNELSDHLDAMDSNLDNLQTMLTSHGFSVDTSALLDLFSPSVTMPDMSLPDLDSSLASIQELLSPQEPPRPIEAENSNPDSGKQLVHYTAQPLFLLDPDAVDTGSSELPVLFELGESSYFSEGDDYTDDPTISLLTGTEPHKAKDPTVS

[4] = growth induction of Burl-1 ts yeast mutant, dose response, counter-screen for SUMOylation pathway inhibitor project, whole organism, S. cerevisiae, luminescence (AID 463199); assay type: functional
[5] = molecular target: DNA dC->dU-editing enzyme APOBEC-3A (Homo sapiens, UniProt P31941); experiment: APOBEC3A DNA deaminase inhibitors, dose response, biochemical (AID 504722); assay type: functional
Sequence of DNA dC->dU-editing enzyme APOBEC-3A (P31941 whole entry): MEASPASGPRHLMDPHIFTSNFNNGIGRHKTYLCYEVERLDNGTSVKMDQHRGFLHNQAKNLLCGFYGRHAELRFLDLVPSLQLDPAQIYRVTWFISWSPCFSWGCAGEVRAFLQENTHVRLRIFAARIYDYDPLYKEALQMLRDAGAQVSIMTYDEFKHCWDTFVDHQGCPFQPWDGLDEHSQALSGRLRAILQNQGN

[6] = molecular target: DNA dC->dU-editing enzyme APOBEC-3G (Homo sapiens, UniProt Q9HC16); experiment: Dose Response confirmation of small molecule APOBEC3G DNA Deaminase Inhibitors via a fluorescence-based single-stranded DNA deaminase assay. [Related pubchem assays (depositor defined):AID493012, AID493028]; assay type: functional
Sequence of DNA dC->dU-editing enzyme APOBEC-3G (Q9HC16 whole entry): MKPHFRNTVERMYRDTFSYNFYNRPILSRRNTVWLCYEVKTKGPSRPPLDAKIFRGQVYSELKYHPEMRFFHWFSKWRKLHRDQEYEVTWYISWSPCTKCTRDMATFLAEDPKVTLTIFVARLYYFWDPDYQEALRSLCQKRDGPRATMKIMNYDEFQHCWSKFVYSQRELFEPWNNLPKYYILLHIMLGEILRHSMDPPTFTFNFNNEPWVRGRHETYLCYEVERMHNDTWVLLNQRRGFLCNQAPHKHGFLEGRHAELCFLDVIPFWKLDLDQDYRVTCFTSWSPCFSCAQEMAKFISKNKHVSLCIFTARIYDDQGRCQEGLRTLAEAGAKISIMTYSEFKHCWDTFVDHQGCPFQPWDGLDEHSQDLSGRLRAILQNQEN

[7] = molecular target: Lysine-specific demethylase 4C (Homo sapiens, UniProt Q9H3R0); experiment: GASC-1 (JMJD2C) histone demethylase inhibitors, dose response, biochemical, DELFIA europium, cherry-picked samples (AID 488835); assay type: functional
Sequence of Lysine-specific demethylase 4C (Q9H3R0 whole entry): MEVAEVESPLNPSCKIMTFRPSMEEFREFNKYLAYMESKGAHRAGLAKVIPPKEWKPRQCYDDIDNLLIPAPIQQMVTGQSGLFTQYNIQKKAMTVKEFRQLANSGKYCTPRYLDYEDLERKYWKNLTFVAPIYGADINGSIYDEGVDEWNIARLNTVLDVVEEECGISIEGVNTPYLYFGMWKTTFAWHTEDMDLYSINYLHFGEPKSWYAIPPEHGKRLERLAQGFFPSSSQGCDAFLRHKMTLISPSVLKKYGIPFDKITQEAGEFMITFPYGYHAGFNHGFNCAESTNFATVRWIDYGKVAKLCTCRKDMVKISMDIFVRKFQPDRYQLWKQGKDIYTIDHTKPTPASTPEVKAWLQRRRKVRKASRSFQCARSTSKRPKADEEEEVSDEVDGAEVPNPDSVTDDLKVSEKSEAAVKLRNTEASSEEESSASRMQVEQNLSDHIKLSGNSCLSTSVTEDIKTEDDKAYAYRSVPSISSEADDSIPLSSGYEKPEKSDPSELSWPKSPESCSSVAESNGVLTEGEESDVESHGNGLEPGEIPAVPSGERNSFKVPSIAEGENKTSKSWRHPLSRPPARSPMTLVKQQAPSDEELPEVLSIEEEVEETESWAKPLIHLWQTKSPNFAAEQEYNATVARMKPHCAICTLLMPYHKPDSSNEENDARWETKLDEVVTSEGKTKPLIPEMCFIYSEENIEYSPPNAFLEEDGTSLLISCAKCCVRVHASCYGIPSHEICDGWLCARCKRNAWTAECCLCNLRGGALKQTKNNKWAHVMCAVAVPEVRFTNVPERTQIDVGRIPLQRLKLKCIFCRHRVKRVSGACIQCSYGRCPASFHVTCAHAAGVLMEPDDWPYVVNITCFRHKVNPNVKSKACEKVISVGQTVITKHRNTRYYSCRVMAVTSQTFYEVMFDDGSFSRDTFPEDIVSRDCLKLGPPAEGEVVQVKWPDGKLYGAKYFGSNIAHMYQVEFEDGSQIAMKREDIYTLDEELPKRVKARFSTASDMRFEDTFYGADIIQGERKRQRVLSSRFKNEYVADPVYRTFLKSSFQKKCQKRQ

[8] = molecular target: Heat shock protein HSP 90-alpha (Homo sapiens, UniProt P07900); assay type: functional, organism-based
[9] = molecular target: T2, Apoptotic protease-activating factor 1 (Homo sapiens, UniProt O14727); assay type: functional
T2 sequence (O14727 whole entry): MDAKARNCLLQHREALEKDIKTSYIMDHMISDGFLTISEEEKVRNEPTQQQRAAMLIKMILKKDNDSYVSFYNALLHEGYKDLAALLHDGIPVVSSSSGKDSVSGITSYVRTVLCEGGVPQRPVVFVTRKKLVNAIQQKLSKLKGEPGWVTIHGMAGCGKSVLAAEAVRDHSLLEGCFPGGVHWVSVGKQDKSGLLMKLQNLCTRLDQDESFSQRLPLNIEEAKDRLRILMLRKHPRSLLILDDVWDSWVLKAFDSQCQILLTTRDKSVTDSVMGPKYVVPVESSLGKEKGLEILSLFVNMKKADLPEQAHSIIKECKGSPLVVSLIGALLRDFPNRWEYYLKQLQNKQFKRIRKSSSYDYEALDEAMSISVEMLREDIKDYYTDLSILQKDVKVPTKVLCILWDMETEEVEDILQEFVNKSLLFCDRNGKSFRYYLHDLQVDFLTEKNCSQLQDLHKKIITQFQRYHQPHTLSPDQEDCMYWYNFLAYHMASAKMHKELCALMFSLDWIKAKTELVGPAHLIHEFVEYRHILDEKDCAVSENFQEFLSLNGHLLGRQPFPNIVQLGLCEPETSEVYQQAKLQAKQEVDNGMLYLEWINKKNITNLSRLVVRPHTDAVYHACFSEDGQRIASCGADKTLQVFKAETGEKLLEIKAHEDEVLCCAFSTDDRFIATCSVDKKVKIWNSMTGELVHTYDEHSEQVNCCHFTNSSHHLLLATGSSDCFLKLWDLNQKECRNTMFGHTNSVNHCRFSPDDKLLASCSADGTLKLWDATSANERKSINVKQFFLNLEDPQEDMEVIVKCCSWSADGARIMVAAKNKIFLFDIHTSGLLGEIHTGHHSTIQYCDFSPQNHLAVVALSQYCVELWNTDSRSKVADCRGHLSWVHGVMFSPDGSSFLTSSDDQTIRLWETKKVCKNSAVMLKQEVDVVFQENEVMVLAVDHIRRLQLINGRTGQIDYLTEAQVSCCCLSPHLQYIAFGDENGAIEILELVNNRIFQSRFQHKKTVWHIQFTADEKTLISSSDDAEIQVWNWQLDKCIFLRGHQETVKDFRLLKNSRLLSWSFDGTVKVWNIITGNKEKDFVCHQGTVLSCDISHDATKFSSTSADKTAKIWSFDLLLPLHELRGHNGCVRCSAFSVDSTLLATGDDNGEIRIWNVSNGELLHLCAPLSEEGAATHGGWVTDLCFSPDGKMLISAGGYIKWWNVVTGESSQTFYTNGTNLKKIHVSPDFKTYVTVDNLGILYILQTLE

[10] = test system: INS1; experiment: beta cell apoptosis inhibitors, cytokine rescue, dose response, luminescence, retest (AID 449756); assay type: functional, cell-based; conditions: Rattus norvegicus;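 note: cell death triggered by IL-1 beta plus TNF-alpha plus IFN-gamma mixture; protective hits raise ATP signal compared with cytokine alone wells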
[11] = molecular target: T3, Rac GTPase-activating protein 1 (Homo sapiens, UniProt Q9H0H5); experiment: MgcRacGAP GTPase-activating activity inhibitors, confirmation, biochemical, ADP Hunter fluorescence, primary and confirmatory (AID 624330); assay type: functional
T3 sequence (Q9H0H5 whole entry): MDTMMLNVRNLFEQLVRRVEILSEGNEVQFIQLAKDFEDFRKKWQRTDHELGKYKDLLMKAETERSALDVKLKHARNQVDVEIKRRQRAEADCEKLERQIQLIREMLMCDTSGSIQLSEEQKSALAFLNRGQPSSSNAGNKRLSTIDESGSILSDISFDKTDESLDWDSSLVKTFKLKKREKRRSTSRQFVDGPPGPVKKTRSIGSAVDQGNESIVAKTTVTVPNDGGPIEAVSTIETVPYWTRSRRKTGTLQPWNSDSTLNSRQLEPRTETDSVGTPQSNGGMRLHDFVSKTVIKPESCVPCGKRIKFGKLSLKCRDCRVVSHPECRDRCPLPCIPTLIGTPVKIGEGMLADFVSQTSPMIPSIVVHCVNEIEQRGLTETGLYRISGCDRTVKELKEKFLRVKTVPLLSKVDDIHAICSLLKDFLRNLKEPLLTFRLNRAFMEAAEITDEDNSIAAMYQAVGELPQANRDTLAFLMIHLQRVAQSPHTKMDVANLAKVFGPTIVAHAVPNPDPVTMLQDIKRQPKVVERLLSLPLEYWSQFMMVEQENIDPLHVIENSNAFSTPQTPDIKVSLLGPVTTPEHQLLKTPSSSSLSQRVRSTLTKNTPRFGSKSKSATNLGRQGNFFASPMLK

[12] = molecular target: RNA-editing ligase 1, mitochondrial (Trypanosoma brucei brucei, UniProt P86926); experiment: TbREL1 ligase inhibitors, dose response, biochemical, fluorescence, Trypanosoma brucei (AID 1117295); assay type: functional
Sequence of RNA-editing ligase 1, mitochondrial (P86926 whole entry): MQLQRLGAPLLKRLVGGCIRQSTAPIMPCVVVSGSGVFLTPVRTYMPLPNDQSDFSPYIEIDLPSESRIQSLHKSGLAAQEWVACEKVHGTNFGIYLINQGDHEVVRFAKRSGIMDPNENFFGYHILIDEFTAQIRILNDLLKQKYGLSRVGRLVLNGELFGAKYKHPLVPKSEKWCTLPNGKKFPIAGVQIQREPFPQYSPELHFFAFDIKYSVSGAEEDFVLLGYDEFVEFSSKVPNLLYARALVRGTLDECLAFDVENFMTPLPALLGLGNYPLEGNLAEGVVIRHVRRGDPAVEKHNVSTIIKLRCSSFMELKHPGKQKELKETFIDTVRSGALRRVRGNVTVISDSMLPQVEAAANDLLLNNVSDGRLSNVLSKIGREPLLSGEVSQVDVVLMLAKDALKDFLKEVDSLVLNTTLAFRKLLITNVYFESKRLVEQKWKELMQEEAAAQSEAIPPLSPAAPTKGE

Sequence of Beta-galactosidase (Q8VNN2 whole entry, the tested form may be a part): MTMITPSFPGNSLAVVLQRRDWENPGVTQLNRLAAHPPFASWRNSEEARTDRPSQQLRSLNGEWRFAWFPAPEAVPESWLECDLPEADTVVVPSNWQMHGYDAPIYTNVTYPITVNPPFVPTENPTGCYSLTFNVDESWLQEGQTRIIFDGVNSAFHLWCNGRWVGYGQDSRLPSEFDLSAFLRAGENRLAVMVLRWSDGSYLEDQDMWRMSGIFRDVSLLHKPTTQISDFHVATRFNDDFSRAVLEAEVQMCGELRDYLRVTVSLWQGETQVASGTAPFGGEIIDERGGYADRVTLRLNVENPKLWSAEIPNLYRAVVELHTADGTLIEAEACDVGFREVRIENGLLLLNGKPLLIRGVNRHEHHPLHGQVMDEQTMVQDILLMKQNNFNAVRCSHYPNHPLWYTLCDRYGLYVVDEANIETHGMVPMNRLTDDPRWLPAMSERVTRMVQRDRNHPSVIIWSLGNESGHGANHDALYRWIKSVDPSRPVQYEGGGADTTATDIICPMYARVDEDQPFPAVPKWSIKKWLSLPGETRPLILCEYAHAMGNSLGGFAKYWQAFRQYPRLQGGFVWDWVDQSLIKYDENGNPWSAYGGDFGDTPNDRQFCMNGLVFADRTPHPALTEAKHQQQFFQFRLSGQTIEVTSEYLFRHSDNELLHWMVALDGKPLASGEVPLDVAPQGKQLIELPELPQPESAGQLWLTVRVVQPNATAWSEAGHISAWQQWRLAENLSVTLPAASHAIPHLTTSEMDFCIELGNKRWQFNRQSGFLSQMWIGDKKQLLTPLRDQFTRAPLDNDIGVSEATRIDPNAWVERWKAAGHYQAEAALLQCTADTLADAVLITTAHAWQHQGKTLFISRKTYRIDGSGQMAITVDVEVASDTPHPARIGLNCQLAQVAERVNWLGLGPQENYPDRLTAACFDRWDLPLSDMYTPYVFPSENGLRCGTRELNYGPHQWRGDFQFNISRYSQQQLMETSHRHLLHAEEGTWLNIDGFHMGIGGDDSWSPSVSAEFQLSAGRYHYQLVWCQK

IC50 [1]: > 66.6 µM (inactive)
IC50 [2]: 14.8 µM (active)
SMILES: O=C(NNC(=O)c1cc(-c2ccccc2)nn1-c1ccccc1)c1ccccc1

EC50 [3]: > 195 µM (not active)
SMILES: O=C(c1ccc([N+](=O)[O-])cc1)N1CCN(c2ncc(Br)cn2)CC1
AC50 [4]: 72.3 µM (active)

SMILES: CCNCCNC(=O)c1c(O)nc2c(c1O)CCCC2
AC50 [4]: 73.1 µM (active)

SMILES: Cc1nnc(N=c2ssnc2Cl)o1
IC50 [5]: > 100 µM (inactive)
IC50 [6]: 4.6 µM (active)
AC50 [7]: 6.06 µM (active)
AC50 [8]: 3.13 µM (active)
IC50 [9]: 16 µM (active)
AC50 [10]: 3.77 µM (active)
IC50 [11]: 69.6 µM (active)
IC50 [12]: 79 µM (inactive)
